Reference: US9989535B2, “Methods and reagents for analyzing protein-protein interfaces” (Warp Drive Bio, Inc., priority 2015, dated 2018)
Each block holds one molecule with its values, some of them ahead of it.

Experiments:
Type in all cases: binding
[1] = molecular target: T1, KRASGDP/S39C lite/CypAC52S (Homo sapiens, UniProt P01116+P62937, C118S/C51S/C52S/C80L/G12V/S39C); assay: Ternary complex formation by SEC and SDS-PAGE; conditions: SEC profile and SDS-PAGE of elution peaks
T1 construct: residues 1-169 containing G12V/S39C/C51S/C80L/C118S; made in house
Protocol: (§1) A 1:2:2 molar ratio of compound, presenter protein, and target protein are mixed together in 12.5 mM HEPES pH 7.4, 75 mM NaCl buffer containing 2% DMSO. The reaction is incubated at 37° C. for 30 min, followed by overnight incubation at room temperature. Pure complex is isolated by Size Exclusion Chromatography (SEC) purification. The reaction mixture is directly injected on a Superdex 75 column (CV 120 mL) pre-equilibrated with buffer containing 12.5 mM HEPES pH 7.4, 75 mM NaCl. Complex elutes at a higher molecular weight than unreacted target protein and presenter protein. To confirm presence of complex in the elution peak, samples are assessed by SDS-PAGE.
(§2) The reaction is incubated at 37° C. for 30 min, followed by overnight incubation at room temperature. Pure complex is isolated by Size Exclusion Chromatography (SEC) purification. The reaction mixture is directly injected on a Superdex 75 column (CV 120 mL) pre-equilibrated with buffer containing 12.5 mM HEPES pH 7.4, 75 mM NaCl. Complex elutes at around 69 mL post injection and unreacted KRASGDP/S39C lite and CypAC52S elutes at around 75 mL and 80 mL post injection respectively. To confirm the presence of KRASGDP/S39C lite and CypAC52S in the elution peak, samples are also assessed by SDS-PAGE.

[2] = molecular target: T2, CypAC52S (Homo sapiens, UniProt P62937, C52S); assay: Presenter cross-linking with SFAX9DS, SDS-PAGE
T2 construct: made in house
T2 sequence (P62937 whole entry C52S): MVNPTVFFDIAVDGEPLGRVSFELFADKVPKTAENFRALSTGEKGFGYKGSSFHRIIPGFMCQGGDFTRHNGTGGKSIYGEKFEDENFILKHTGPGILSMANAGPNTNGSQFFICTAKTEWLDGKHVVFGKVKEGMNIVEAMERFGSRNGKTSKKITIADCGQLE
Protocol: (§3) Experimental Protocol: A 1:2 molar ratio of KRASGTP/G12C lite and SFAX9DS are mixed together in 12.5 mM HEPES pH 7.4, 75 mM NaCl buffer containing 2% DMSO. The reaction is incubated at 37° C. for 30 min, followed by overnight incubation at room temperature. Cross-linking efficiency is assessed by SDS-PAGE gel. Wild-type CypA also cross-linked with the compound. Cysteine 52 as a reactive Cysteine on CypA and was mutated to Serine to abrogate presenter cross-linking.

[3] = molecular target: T3, KRASGTP/G12C lite (Homo sapiens, UniProt P01116, C118S/C51S/C80L/G12C); assay: Formation of KRASGTP/G12C lite/SFAX9DS conjugates, SDS-PAGE; conditions: 1:2 protein:compound
T3 construct: residues 1-169 containing G12C/C51S/C80L/C118S; made in house
Protocol: (§4) Experimental Protocol: A 1:2 molar ratio of target protein and compound are mixed together in 12.5 mM HEPES pH 7.4, 75 mM NaCl buffer containing 2% DMSO. The reaction is incubated at 37° C. for 30 min, followed by overnight incubation at room temperature. Cross-linking efficiency is assessed by SDS-PAGE gel. Conjugates migrate slower than non-cross-linked target protein. For thiol reactive compounds, the Cys specific attachment of the compound to the target protein can be further confirmed by SDS-PAGE after the addition of 100 mM DTT to the reaction mixture, which reduces the conjugate back into its components.
as §3

[4] = molecular target: T4, KRASGTP/S39C lite/FKBP12 (Homo sapiens, UniProt P01116+P62942, C118S/C51S/C80L/G12V/S39C); assay: Ternary complex formation by SEC and SDS-PAGE; conditions: SEC profile and SDS-PAGE of elution peaks
T4 construct: residues 1-169 containing G12V/S39C/C51S/C80L/C118S; made in house
Protocol: as §1
as §2, with “KRASGTP/S39C” for “KRASGDP/S39C”, “FKBP12” for “CypAC52S”, “87” for “80”

[5] = molecular target: T5, KRASGTP/G12C (Homo sapiens, UniProt P01116+P62942, G12C); assay: Disulfide cross-linking efficiency by mass spectrometry, with or without FKBP12; conditions: 2 μM KRAS, 10 μM ligand, 4 hours RT, MS
T5 construct: KRASGTP/G12C (in-house, residues 1-169); made in house
Protocol: Experimental protocol: In order to follow the kinetics of disulfide crosslinking reactions, Agilent 6230 TOF-LC/MS and Agilent 1260 HPLC instruments employing a AdvanceBio RP-mAb C4 column (2.1×100 mm, 3.5 μm) and equipped with an auto-sampler were used. HPLC grade acetonitrile and water (each containing 1.0 mM ammonium formate and 1% formic acid by volume) were used as mobile phase with the following ramp: 0.6 ml/min flow rate, water:acetonitrile=95:5 from 0.0 to 13.0 min ramping to water:acetonitrile=5:95 from 13.0 to 17.0 min. Total time=17.0 min.
All crosslinking reactions were performed in 1.5 mL amber colored glass vials equipped with 0.5 mL glass inserts. A water-soluble peptide (SEQ ID NO: 1: […]) was employed as an internal standard. Although the actual sequence of the internal standard is inconsequential, choice of amino acid residues were critical to avoid interference in the crosslinking assays. […] All reactions and standard solutions were prepared in HEPES (pH 7.4, 1.0 mM MgCl2) buffer.
Prior to every reaction, a standard curve was obtained for the individual components using a series of standard solutions (an example of standard curve analysis for FKBP12 is shown in Table 3 below). Using the data from standard curve, μmol of protein samples were plotted against the ratio of areas (sample:std) and a linear fit (y=mx+c) was employed to obtain the slope and intercept. The value of slope and intercept involved in these standard curves were accounted for during evaluation of the substrate and product concentration before and during the course of the reaction. For every substrate/product, an initial injection was followed up by a blank injection to verify presence of any residual protein/reagents. Based on this analysis the sequence of auto-sampler can be adjusted to included appropriate number of blank injections for removal of residual components, if any. The MS spectra were analyzed using Agilent MassHunter v B.07.0 software.
In a representative experiment to assess the presenter dependency of ligand cross-linking on the target protein, KRASGTP/G12C and either C3- or C4-SLF ligand were incubated in the presence or absence of FKBP12 at concentrations of 2 μM KRAS, 10 μM FKBP12, 10 μM C3- or C4-SLF for 4 hours at room temperature in 12.5 mM HEPES pH 7.4, 75 mM NaCl, 1 mM MgCl2, 3% DMSO. Analysis of the amount of KRAS undergoing disulfide cross-linking with the ligand using the method above.

[6] = molecular target: T5, KRASGTP/G12C; assay: Cross-linking gel shift assay (12% SDS-PAGE), with or without FKBP12; conditions: 60 μM KRAS, 180 μM FKBP12, 180 μM ligand, quenched by MMTS
Protocol: In parallel to mass spectrometry analysis, cross-linking reactions with C3- or C4-SLF were subjected to gel shift assay using 12% SDS-PAGE in the presence or absence of FKBP12 at the same experimental condition described above except that cross-linking reactions were set up at higher concentrations (60 μM KRAS, 180 μM FKBP12, and 180 μM C3- or C4-SLF) and they were quenched by MMTS to terminate the reaction.

[7] = molecular target: T6, KRASGTP/S39C lite (Homo sapiens, UniProt P01116, C118S/C51S/C80L/G12V/S39C); assay: Formation of KRASGTP/S39C lite/C2-FK506 conjugates, SDS-PAGE
T6 construct: residues 1-169 containing G12V/S39C/C51S/C80L/C118S; made in house
Protocol: as §4
Experimental Protocol: A 1:2 molar ratio of KRASGTP/S39C lite and C2-FK506 are mixed together in 12.5 mM HEPES pH 7.4, 75 mM NaCl buffer containing 2% DMSO. The reaction is incubated at 37° C. for 30 min, followed by overnight incubation at room temperature. Cross-linking efficiency is assessed by SDS-PAGE gel. Attachment of C2-FK506 to Cysteine 39 on KRASGTP/S39C lite is also assessed by incubation of the reaction mixture with 100 mM DTT.

Formation of KRASGDP/S39C lite/SFAC4DS/CypAC52S complex [1]: confirm the formation
SMILES: COC(=O)[C@@H]1CCCN(C(=O)[C@H](Cc2cccc(O)c2)NC(=O)[C@@H](NC(=O)CCCSSc2ccccn2)C(C)C)N1 [SFAC4DS, methyl (S)-1-((S)-3-(3-hydroxyphenyl)-2-((S)-3-methyl-2-(4-(pyridin-2-yldisulfanyl)butanamido)butanamido)propanoyl)hexahydropyridazine-3-carboxylate]

SMILES: COC(=O)[C@@H]1CCCN(C(=O)[C@H](Cc2cccc(O)c2)NC(=O)[C@@H](NC(=O)CCOCCOCCSSc2ccccn2)C(C)C)N1 [SFAX9DS]
Cross-linking of presenter CypAC52S to compound [2]: does not cross-link | Cross-linking efficiency with KRASGTP/G12C lite [3]: cross-links efficiently

SMILES: CCC(C)(C)C(=O)C(=O)N1CCCC[C@H]1C(=O)OCCCC(=O)NCCSSc1ccccn1 [Compound C2-Holt]
Formation of KRASGTP/S39C lite/C2-Holt/FKBP12 complex [4]: confirm the formation

SMILES: CCC(C)(C)C(=O)C(=O)N1CCCC[C@H]1C(=O)O[C@H](CCc1ccc(OC)c(OC)c1)c1cccc(NC(=O)CCCSSc2ccccn2)c1 [Compound C4-SLF, (R)-3-(3,4-dimethoxyphenyl)-1-(3-(4-(pyridin-2-yldisulfanyl)butanamido)phenyl)propyl (S)-1-(3,3-dimethyl-2-oxopentanoyl)piperidine-2-carboxylate]
% × link to KRAS ([5]; FKBP12 absent (−)): 7.0% | % × link to KRAS ([5]; FKBP12 present (+) 10 μM): 69.8% | Ligand cross-linking efficiency in the presence of FKBP12, gel shift [6]: boosted significantly

Cross-linking efficiency with KRASGTP/S39C lite ([7]; 1:2 protein:compound, 37° C. 30 min then overnight RT): cross-links efficiently | Site specificity of attachment ([7]; reaction mixture + 100 mM DTT): specific for Cysteine 39
SMILES: CO[C@H]1C[C@@H](C)C/C(C)=C/[C@@H](CCCC(=O)NCCSSc2ccccn2)C(=O)C[C@H](O)[C@@H](C)[C@@H](/C(C)=C/[C@@H]2CC[C@@H](O)[C@H](OC)C2)OC(=O)[C@@H]2CCCCN2C(=O)C(=O)[C@]2(O)O[C@H]1[C@@H](OC)C[C@H]2C [Compound C2-FK506]
